BindingDB's records for doi:10.1021/acs.jmedchem.7b00882 (The University of Queensland, 2018)
Blank lines part the entries; values can stand above or below the compound they belong to. Peptide text beside a SMILES is read from it.

How the values were obtained:
[1] = Inhibition of human serum C1s-mediated lysis of rabbit Ab-sensitized sheep erythrocytes after 60 mins
[2] = Inhibition of human serum C2-mediated lysis of antibody-sensitized sheep red blood cells after 30 mins by UV-Vis spectrophotometric method
[3] = Inhibition of factor D in […]-activated rat serum assessed as decrease in human erythrocyte lysis
[4] = Inhibition of factor D in […]-activated human serum assessed as decrease in human erythrocyte lysis
[5] = Inhibition of C9 binding to C5b678 in […] activated human serum assessed as suppression of human erythrocyte lysis after 1 hr by ELISA

SMILES: N=C(N)c1cc2ccc(OC(=O)c3cccs3)cc2s1
IC50 [1]: 46 nM

SMILES: CC(=O)N[C@@H](CCCNC(=N)N)C(=O)N[C@@H](CC(C)C)C(=O)N[C@@H](CC(C)C)C(=O)N[C@@H](CC(C)C)C(=O)N[C@@H](C)C(=O)N[C@H](C=O)CCCNC(=N)N (Ac-RLLLAR-aldehyde)
IC50 [2]: 28000 nM

SMILES: CC(=O)Oc1ccc(-c2ccc(OC(C)=O)c(C(=O)O)c2)cc1C(=O)O
IC50 [3]: 100 nM
IC50 [4]: 100 nM

SMILES: CC(=O)Oc1ccc(Cc2ccc(OC(C)=O)c(C(=O)O)c2)cc1C(=O)O
IC50 [3]: 100 nM
IC50 [4]: 100 nM

Now from value to compound:

IC50 [5]: 500 nM
SMILES: O=C(O)C1=CC(=C(c2ccc(O)c(C(=O)O)c2)c2ccc(O)c(C(=O)O)c2)C=CC1=O [MLS002153482]

IC50 [5]: 500 nM
SMILES: O=C(O)C1=C/C(=C(/c2ccc(O)c(C(=O)O)c2)c2cc(Cc3cc(C(c4ccc(O)c(C(=O)O)c4)c4ccc(O)c(C(=O)O)c4)cc(C(=O)O)c3O)cc(C(=O)O)c2O)C=CC1=O

IC50 [5]: 500 nM
SMILES: O=C(O)C1=C/C(=C\c2cc(C(c3ccc(O)c(C(=O)O)c3)c3ccc(O)c(C(=O)O)c3)cc(C(=O)O)c2O)C=CC1=O
